In patent publication US11471537B2, “Oligomer extended insulin-Fc conjugates” (Novo Nordisk A/S, priority 2017, dated 2022):

Tests used:
Sprague-Dawley rats = assay: PD studies: blood glucose after subcutaneous dosing; type: in vivo; conditions: sc
Procedure: The pharmacodynamic effect of the Insulin Fc conjugates of the examples were investigated in normal male Sprague-Dawley rats weighing approx. 350 g at study start.
Animals had free access to food and water during the experiment period. They were dosed subcutaneously in the neck region with a dose of 30 nmol/kg (unless otherwise stated in the figures below). Blood samples for blood glucose and plasma insulin analysis were collected from the tongue veins up to 10 days post dosing. Blood glucose was measured using Biosen S Line (EKF).

insulin receptor A = insulin receptor A (Homo sapiens, UniProt P06213); assay: Insulin receptor affinity; type: binding; conditions: relative to affinity of human insulin for insulin receptor A (100%)
isolated rat adipocytes = assay: Insulin-stimulated lipogenesis; type: cell-based; conditions: 1% HSA; relative to the activity of human insulin (100%)
Procedure: Insulin-stimulated lipogenesis was measured in isolated rat adipocytes in presence of 1% HSA as described in Moody A J, Stan M A, Stan M, Gliemann J. A Simple Free Fat Cell Bioassay for Insulin. Hormone And Metabolic Research. 1974; 6(1):12-6, see results in Table 6.

[1] = dose 30 nmol/kg, time 0.041667 days
[2] = dose 30 nmol/kg, time 0.125 days
[3] = dose 30 nmol/kg, time 0.291667 days

Sequence of insulin receptor A (P06213 28-1370 isoform P06213-2 limits assumed): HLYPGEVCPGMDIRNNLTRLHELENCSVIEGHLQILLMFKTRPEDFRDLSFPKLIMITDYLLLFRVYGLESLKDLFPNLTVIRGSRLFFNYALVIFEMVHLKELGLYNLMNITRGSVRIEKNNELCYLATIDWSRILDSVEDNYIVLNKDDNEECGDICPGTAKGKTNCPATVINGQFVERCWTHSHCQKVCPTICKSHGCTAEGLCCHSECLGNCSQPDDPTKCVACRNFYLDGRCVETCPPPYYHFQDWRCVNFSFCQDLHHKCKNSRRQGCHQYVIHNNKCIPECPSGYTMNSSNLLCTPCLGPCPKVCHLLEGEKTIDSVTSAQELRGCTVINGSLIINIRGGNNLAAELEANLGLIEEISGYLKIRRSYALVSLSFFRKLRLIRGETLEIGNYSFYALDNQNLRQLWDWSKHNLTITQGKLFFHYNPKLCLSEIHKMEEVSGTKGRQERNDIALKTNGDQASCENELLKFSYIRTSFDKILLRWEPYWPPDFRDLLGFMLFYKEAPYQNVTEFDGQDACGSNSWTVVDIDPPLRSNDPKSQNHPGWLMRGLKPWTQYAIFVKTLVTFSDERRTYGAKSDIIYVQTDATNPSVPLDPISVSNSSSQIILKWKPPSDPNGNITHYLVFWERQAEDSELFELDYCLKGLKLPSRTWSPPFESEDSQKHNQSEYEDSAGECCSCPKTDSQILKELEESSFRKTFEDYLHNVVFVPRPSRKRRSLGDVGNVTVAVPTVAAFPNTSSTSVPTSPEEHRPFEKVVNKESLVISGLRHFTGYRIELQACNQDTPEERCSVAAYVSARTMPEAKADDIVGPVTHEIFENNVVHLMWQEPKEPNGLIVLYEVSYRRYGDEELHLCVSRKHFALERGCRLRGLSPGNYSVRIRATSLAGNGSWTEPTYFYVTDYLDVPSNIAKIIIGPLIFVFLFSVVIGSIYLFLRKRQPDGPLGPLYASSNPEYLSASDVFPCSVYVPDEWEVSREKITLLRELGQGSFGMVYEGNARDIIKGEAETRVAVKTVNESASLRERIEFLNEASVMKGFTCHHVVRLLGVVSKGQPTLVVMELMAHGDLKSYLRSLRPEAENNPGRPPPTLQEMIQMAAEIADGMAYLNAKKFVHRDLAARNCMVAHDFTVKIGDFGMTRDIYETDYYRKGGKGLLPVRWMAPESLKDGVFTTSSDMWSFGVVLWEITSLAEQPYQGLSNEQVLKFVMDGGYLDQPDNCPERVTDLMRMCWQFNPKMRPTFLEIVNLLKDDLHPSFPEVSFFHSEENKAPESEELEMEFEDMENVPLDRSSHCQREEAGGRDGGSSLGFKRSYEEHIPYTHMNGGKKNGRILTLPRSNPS
Sequence of insulin receptor A (P06213 763-1382 partner limits assumed): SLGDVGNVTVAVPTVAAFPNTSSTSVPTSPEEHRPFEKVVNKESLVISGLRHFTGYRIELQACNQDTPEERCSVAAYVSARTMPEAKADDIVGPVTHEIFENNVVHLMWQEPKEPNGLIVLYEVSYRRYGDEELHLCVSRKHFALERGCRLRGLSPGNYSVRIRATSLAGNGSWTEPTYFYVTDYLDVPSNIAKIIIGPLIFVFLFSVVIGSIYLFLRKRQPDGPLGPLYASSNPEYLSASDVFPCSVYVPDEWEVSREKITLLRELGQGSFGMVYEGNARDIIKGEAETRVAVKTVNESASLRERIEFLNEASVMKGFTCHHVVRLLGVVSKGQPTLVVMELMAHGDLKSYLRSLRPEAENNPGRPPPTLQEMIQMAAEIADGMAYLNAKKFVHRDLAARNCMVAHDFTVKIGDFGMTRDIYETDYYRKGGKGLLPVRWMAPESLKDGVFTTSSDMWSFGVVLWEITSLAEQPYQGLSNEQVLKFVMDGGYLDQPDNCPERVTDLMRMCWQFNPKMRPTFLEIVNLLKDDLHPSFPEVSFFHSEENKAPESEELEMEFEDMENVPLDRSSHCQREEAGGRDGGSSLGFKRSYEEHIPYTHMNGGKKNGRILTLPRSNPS

Substance | Average blood glucose (Sprague-Dawley rats; dose 30 nmol/kg, time 0 days) [mM] | Average blood glucose (Sprague-Dawley rats; [1]) [mM] | Average blood glucose (Sprague-Dawley rats; [2]) [mM] | Average blood glucose (Sprague-Dawley rats; [3]) [mM] | Average blood glucose (Sprague-Dawley rats; dose 30 nmol/kg, time 1 day) [mM] | Average blood glucose (Sprague-Dawley rats; dose 30 nmol/kg, time 2 days) [mM] | Average blood glucose (Sprague-Dawley rats; dose 30 nmol/kg, time 3 days) [mM] | Average blood glucose (Sprague-Dawley rats; dose 30 nmol/kg, time 4 days) [mM] | Average blood glucose (Sprague-Dawley rats; dose 30 nmol/kg, time 5 days) [mM] | Average blood glucose (Sprague-Dawley rats; dose 30 nmol/kg, time 6 days) [mM] | Average blood glucose (Sprague-Dawley rats; dose 30 nmol/kg, time 7 days) [mM] | Average blood glucose (Sprague-Dawley rats; dose 30 nmol/kg, time 8 days) [mM] | Insulin receptor affinity [IC50 relative to HI (%)] Mean Value (insulin receptor A) [%] | Lipogenesis in rat adipocytes [Potency (%)] Mean Value (isolated rat adipocytes) [%] | other results
(A14A, A21G, A22(GQAP)18, A94G, A95Q, A96A, A97K^, A98P, B29R, desB30 human insulin)/(227A, 234A, 235K, 297E, 315Q, 384Q, des447 hIgG4-Fc(228-447))4-[bis[2-[(2-acetyl)amino]ethyl]amino]-4-oxo-butanoyl Conjugate [Example 5.25] | 5.724 | 6.104 | 4.9 | 4.032 | 3.28 | 3.864 | 6.224 | 5.976 | 6.036 | 6.496 | 6.14 | 6.452 | 4.49 | 2.08 | Average blood glucose (Sprague-Dawley rats; dose 30 nmol/kg, time 9 days): 6.528 mM; Average blood glucose (Sprague-Dawley rats; dose 30 nmol/kg, time 10 days): 6.144 mM
(A14E, A21G, A22(GQAP)18, A94G, A95Q, A96A, A97K^, A98P, B16E, B25H, B29R, desB30 human insulin)/(227A, 234A, 235K, 297E, 315Q, 384Q, des447 hIgG4-Fc(228-447))4-[bis[2-[(2-acetyl)amino]ethyl]amino]-4-oxo-butanoyl Conjugate [Example 5.31] |  |  |  |  |  |  |  |  |  |  |  |  | 0.47 | 0.60 | 
(A14E, A21G, A22(GQAP)24, A118G, A119Q, A120A, A121K^, A122P, B25H, B29R, desB30 human insulin)/(227A, 234A, 235K, 297E, 315Q, 3840, des447 hIgG4-Fc(228-447))3,5-bis[(2-acetyl)amino]benzoyl Conjugate [Example 5.22] |  |  |  |  |  |  |  |  |  |  |  |  | 3.56 | 4.64 | 
(A14E, A21G, A22(GQAP)24, A118G, A119Q, A120A, A121K^, A122P, B29R, desB30 human insulin)/(227A, 234A, 235K, 297E, 315Q, 384Q, des447 hIgG4-Fc(228-447))3,5-bis[(2-acetyl)amino]benzoyl Conjugate [Example 5.29] |  |  |  |  |  |  |  |  |  |  |  |  | 3.06 | 2.64 | 
(A14E, A21G, A22(GQEP)19, 98K^, A99P, B25H, B29R, desB30 human insulin)/(226A, 227G, 228P, 234A, 235K, des447 hIgG4-Fc(228-447))3,5-bis[(2-acetyl)amino]benzoyl Conjugate [Example 5.33] | 5.496 | 5.284 | 4.716 | 3.744 | 3.744 | 2.232 | 1.844 | 2.432 | 3.98 | 6.132 | 5.712 | 5.38 | 3.85 | 5.44 | Average blood glucose (Sprague-Dawley rats; dose 30 nmol/kg, time 9 days): 5.316 mM; Average blood glucose (Sprague-Dawley rats; dose 30 nmol/kg, time 10 days): 5.44 mM
(A14E, A21G, A22(GQEP)19, A98K^, A99P, B25H, B29R, desB30 human insulin)/(227A, 234A, 235K hIgG4-Fc(228-447))4-[bis[2-[(2-acetyl)amino]ethyl]amino]-4-oxo-butanoyl Conjugate [Example 5.1] | 6.68 | 5.888 | 4.988 | 3.752 | 2.524 | 2.036 | 2.964 | 3.244 |  | 6.508 | 6.18 | 5.996 | 5.07 | 6.69 | 
A14E, A21G, A22(GQAPGQAPGQAPGQEP)6-GQAP, A122K^, A123P, B25H, B29R, desB30 human insulin/(227A, 234A, 235K, 297E, 315Q, 384Q, des447 hIgG4-Fc(228-447))4-[bis[2-[(2-acetyl)amino]ethyl]amino]-4-oxo-butanoyl Conjugate [Example 5.20] |  |  |  |  |  |  |  |  |  |  |  |  | 5.49 | 5.41 | 
A14E, A21G, A22(GQAPGQAPGQEP)6-GQAP, A98K^, A99P, B3Q, B25H, B29R, desB30 human insulin/(227A, 234A, 235K hIgG4-Fc(228-447))4-[bis[2-[(2-acetyl)amino]ethyl]amino]-4-oxo-butanoyl Conjugate [Example 5.5] | 5.266 | 5.276 | 4.894 | 4.358 | 3.106 | 2.33 | 2.786 | 4.764 | 5.842 | 6.016 | 5.76 | 5.794 | 3.34 | 2.21 | Average blood glucose (Sprague-Dawley rats; dose 30 nmol/kg, time 0.208333 days): 4.422 mM
A14E, A21G, A22(GQAPGQAPGQEP)6-GQAP, A98K^, A99P, B3Q, B25H, B29R, desB30 human insulin/(227A, 234A, 235K, 297E, 315Q, 384Q, des447 hIgG4-Fc(228-447))4-[bis[2-[(2-acetyl)amino]ethyl]carbamoylamino]butanoyl Conjugate [Example 5.24] | 5.604 | 5.98 | 5.172 | 4.164 | 2.924 | 3.128 | 3.352 | 6.272 | 5.788 | 5.824 | 6.092 | 6.016 | 4.60 | 3.83 | Average blood glucose (Sprague-Dawley rats; dose 30 nmol/kg, time 9 days): 5.872 mM; Average blood glucose (Sprague-Dawley rats; dose 30 nmol/kg, time 10 days): 6.072 mM
A14E, A21G, A22(GQEP)3, A34G, A350, A36E, A37K^, A38P, B25H, B29R, desB30 human insulin/(227A, 234A, 235K hIgG4-Fc(228-447))4-[bis[2-[(2-acetyl)amino]ethyl]amino]-4-oxo-butanoyl Conjugate [Example 5.10] |  |  |  |  |  |  |  |  |  |  |  |  | 2.47 |  | 
A14E, A21G, A22(GQEP)6, A46K^, A47P, B25H, B29R, desB30 human insulin/(227A, 234A, 235K, 297E, 315Q, 384Q, des447 hIgG4-Fc(228-447))4-[bis[2-[(2-acetyl)amino]ethyl]amino]-4-oxo-butanoyl Conjugate [Example 5.32] |  |  |  |  |  |  |  |  |  |  |  |  | 2.16 | 3.72 | 
A14E, A21G, A22(GQEP)19, A98K^, A99P, B3Q, B25H, B29R, desB30 human insulin/(227A, 234A, 235K hIgG4-Fc(228-447))4-[bis[2-[(2-acetyl)amino]ethyl]amino]-4-oxo-butanoyl Conjugate [Example 5.6] | 6.46 | 6.024 | 5.092 | 3.90 | 2.808 | 2.464 | 2.996 | 2.996 |  | 5.98 | 5.82 | 6.012 | 5.07 |  | 
insulin degludec [reference compound] |  |  |  |  |  |  |  |  |  |  |  |  |  |  | time over which blood glucose was lowered (Sprague-Dawley rats; 3-fold higher dose (90 nmol/kg)): less than half a day; Average blood glucose (Sprague-Dawley rats; dose 90 nmol/kg, time 0 days): 5.382 mM; Average blood glucose (Sprague-Dawley rats; dose 90 nmol/kg, time 0.020833 days): 4.104 mM; Average blood glucose (Sprague-Dawley rats; dose 90 nmol/kg, time 0.041667 days): 3.182 mM; Average blood glucose (Sprague-Dawley rats; dose 90 nmol/kg, time 0.083333 days): 2.718 mM; Average blood glucose (Sprague-Dawley rats; dose 90 nmol/kg, time 0.166667 days): 2.336 mM; Average blood glucose (Sprague-Dawley rats; dose 90 nmol/kg, time 0.25 days): 3.424 mM; Average blood glucose (Sprague-Dawley rats; dose 90 nmol/kg, time 0.3336 days): 4.292 mM; Average blood glucose (Sprague-Dawley rats; dose 90 nmol/kg, time 0.5 days): 5.302 mM; Average blood glucose (Sprague-Dawley rats; dose 90 nmol/kg, time 1 day): 5.758 mM
